According to patent US20060089410A1, “Combination of chemotherapeutic drugs for increasing antitumor activity” (Titan Pharmaceuticals, Inc., priority 2002, published 2006):
Structures can show the parent of a compound that is named as a salt. Where two headings read alike, the source gives them in different places.

Columns and labels:
[1] = test system: T24 Bladder transitional carcinoma cells; experiment: Crystal violet microtiter assay, Pivanex then cytotoxic drug, T24; assay type: cell-based, human; conditions: Pivanex 0 μM
Description: (§1) T24 Bladder transitional carcinoma cells, Calu-6 anaplastic lung carcinoma cells, and SK-MES-1 squamous lung cell carcinoma cell cultures were purchased from the American Type Culture Collection (Manassas, Va.). All cell lines were cultured in RPMI-1640 with 10% fetal calf serum. For culture in microtiter dishes, cells were plated at a density of 10^4 cells/well and incubated at 37° C., 5% CO2 overnight.
(§2) After overnight incubation, drugs were added to wells in quadruplicate and incubated for 6 to 96 hours in the presence or absence of the oxyalkylene containing compound. […] the media was removed, fresh media were added with cytotoxic drug, and the cultures were incubated for another 6 hours.
(§3) The wells were then washed and medium without drug was added to each well. Microtiter plates were subsequently incubated for an additional 3 days before cell density was determined by a Crystal Violet Assay. Some cultures were alternatively fixed in methanol and stained with hematoxylin and eosin (H&E) stain for 5 minutes prior to microphotography.
(§4) PIVANEX (pivaloyloxymethyl butyrate) was obtained from Titan Pharmaceuticals Inc. (South San Francisco, Calif.) and was admixed with 0.05% Intralipid™ (Fresenius Kabi, Clayton, N.C.) prior to addition to culture media. The cytotoxic drugs gemcitabine (Gemzar; Eli Lilly and Co., Indianapolis, Ind.), cisplatin (Platinol, Bristol-Myers Squibb Co., Princeton, N.J.), paclitaxel (Taxol; Bristol-Myers Squibb Co., Princeton, N.J.), and docetaxel (Taxotere, Aventis Pharmaceuticals Products, Inc., Bridgewater, N.J.) were studied with PIVANEX.
(§5) Cells in microtiter wells were rinsed with PBS and fixed in two volumes of 100% cold methanol for 5 minutes. One volume of 0.5% crystal violet in 20% methanol was added and the attached cells stained for 10 minutes. The cells were then washed and crystal violet was eluted with 0.1 N sodium citrate buffer and read on an ELISA plate reader at 490 nm.

[2] = test system: SK-MES-1 squamous lung cell carcinoma cell; experiment: Crystal violet microtiter assay, Pivanex then cytotoxic drug, SK-MES-1; assay type: cell-based; conditions: Pivanex 0 μM
Description: as §1, §2, §3, §4, §5

[3] = test system: Calu-6 anaplastic lung carcinoma cells; experiment: Crystal violet microtiter assay, Pivanex then cytotoxic drug, Calu-6; assay type: cell-based; conditions: Pivanex 0 μM
Description: as §1, §2, §3, §4, §5

H522 NSCLC cell line = experiment: MTS growth inhibition assay, sequencing of Pivanex and docetaxel, H522; assay type: cell-based, human; conditions: after 24 hour exposure
Description: Human Non-Small Cell Lung Carcinoma Cell Lines, H522 and NCI-H23, were evaluated for growth inhibitory activity of Pivanex, alone and in combination with the standard chemotherapeutic agent, docetaxel. Cells were treated for three days with Pivanex followed by 24 hours of exposure to docetaxel or the cells were treated for 24 hours with docetaxel followed by three days of exposure to Pivanex. The cell growth inhibition was judged at the end of the 4-day experiments by a standard staining technique using MTS tetrazolium vital stain. […]
Exponentially growing cells were harvested with trypsin (0.05%)/EDTA (0.02%) and re-suspended in fresh medium containing 10% FBS. […] Absorbance was documented on a Dynex HD microplate reader at a wavelength of 490 nm. IC50 values were determined by using the Prism® GraphPad software from 3 different tests, each of which involved 4 replicates for each dose determination. The data are presented as percent growth inhibition, where 0% represents the mean value in wells to which only vehicle (0.1% DMSO) was added and was calculated as follows: % Growth Inhibition=(1−(ODtest/ODvehicle))×100 where ODtest is the optical density of the tested sample, OD vehicle is the optical density of the vehicle in which each respected drug is dissolved. […]

[4] = test system: H23 (NCI-H23) NSCLC cell line; experiment: MTS growth inhibition assay, sequencing of Pivanex and docetaxel, H23; assay type: cell-based, human; conditions: after 24 hour exposure
[5] = cited from earlier work
[6] = test system: refractory acute myelogenous leukemia in relapse; conditions: child, 0.5 g/kg/day; cited from earlier work
[7] = test system: leukemic cells isolated from myelogenous leukemic patients; conditions: in vitro

Structure (SMILES): N.N.[Cl][Pt][Cl] [Cisplatin, cisplatin, reference compound]
- T24 cancer cell viability (A^490 Absorbance) ([1]; cisplatin 5 μM): 0.434
- T24 cancer cell viability (A^490 Absorbance) ([1]; cisplatin 10 μM): 0.404
- T24 cancer cell viability (A^490 Absorbance) ([1]; cisplatin 20 μM): 0.25
- T24 cancer cell viability (A^490 Absorbance) ([1]; cisplatin […]): 0.486
- SK-MES-1 non-small cancer cell viability (A^490 Absorbance) ([2]; cisplatin 10 μM): 1.562
- SK-MES-1 non-small cancer cell viability (A^490 Absorbance) ([2]; cisplatin 20 μM): 1.477
- Calu-6 cancer cell viability (A^490 Absorbance) ([3]; cisplatin 5 μM): 0.557
- Calu-6 cancer cell viability (A^490 Absorbance) ([3]; cisplatin 10 μM): 0.328
- Calu-6 cancer cell viability (A^490 Absorbance) ([3]; cisplatin 20 μM): 0.238
- Calu-6 cancer cell viability (A^490 Absorbance) ([3]; cisplatin […]): 0.608

Structure (SMILES): CC(=O)O[C@@]12CO[C@@H]1C[C@H](O)[C@@]1(C)C(=O)[C@H](O)C3=C(C)[C@@H](OC(=O)[C@H](O)[C@@H](NC(=O)OC(C)(C)C)c4ccccc4)C[C@@](O)([C@@H](OC(=O)c4ccccc4)[C@H]21)C3(C)C [Docetaxel, docetaxel]
- cell growth with agent alone (H522 NSCLC cell line): steep increase in H522 cell growth
- cell growth with agent alone [4]: steep increase in H23 cell growth
- Calu-6 cancer cell viability (A^490 Absorbance) ([3]; docetaxel 25 nM): 0.219
- Calu-6 cancer cell viability (A^490 Absorbance) ([3]; docetaxel 50 nM): 0.183
- Calu-6 cancer cell viability (A^490 Absorbance) ([3]; docetaxel 100 nM): 0.174
- Calu-6 cancer cell viability (A^490 Absorbance) ([3]; docetaxel 200 nM): 0.148

Structure (SMILES): Nc1ccn([C@@H]2O[C@H](CO)[C@@H](O)C2(F)F)c(=O)n1 [Gemcitabine, gemcitabine]
- T24 cancer cell viability (A^490 Absorbance) ([1]; gemcitabine 10 nM): 0.48
- T24 cancer cell viability (A^490 Absorbance) ([1]; gemcitabine 50 nM): 0.422
- Calu-6 cancer cell viability (A^490 Absorbance) ([3]; gemcitabine 25 nM): 0.587
- Calu-6 cancer cell viability (A^490 Absorbance) ([3]; gemcitabine 50 nM): 0.466
- Calu-6 cancer cell viability (A^490 Absorbance) ([3]; gemcitabine 100 nM): 0.456
- Calu-6 cancer cell viability (A^490 Absorbance) ([3]; gemcitabine 200 nM): 0.403

Structure (SMILES): CC(=O)O[C@H]1C(=O)[C@@]2(C)[C@H]([C@H](OC(=O)c3ccccc3)[C@]3(O)C[C@H](OC(=O)[C@H](O)[C@@H](NC(=O)c4ccccc4)c4ccccc4)C(C)=C1C3(C)C)[C@]1(OC(C)=O)CO[C@@H]1C[C@@H]2O [Paclitaxel, paclitaxel, reference compound]
- SK-MES-1 cancer cell viability (A^490 Absorbance) ([2]; paclitaxel 25 μM): 0.655
- SK-MES-1 cancer cell viability (A^490 Absorbance) ([2]; paclitaxel 50 μM): 0.627
- SK-MES-1 cancer cell viability (A^490 Absorbance) ([2]; paclitaxel 100 μM): 0.42

Structure (SMILES): CCCC(=O)O [butyric acid/salts, butyric acid]
- toxicity ([5]; child with refractory acute myelogenous leukemia in relapse, 0.5 g/kg/day): without detectable toxic effects
- toxicity ([5]; clinical trials with high dosages): no toxicity
- adverse reaction in clinical follow up ([5]; patient with acute myelogenous leukemia in relapse, 1.0 g/kg/day for 10 days and 1.5 g/kg/day for 6 days): no adverse reaction
- toxicity ([5]; patients with neuroblastoma, doses of up to 10 g/day): no clinically detectable toxicity
- clinical response [6]: partial and temporary remission
- cytotoxic and cytodifferentiating potency compared with retinoic acid, 1, 25-dihydroxy vitamin D and cytosine arabinoside [7]: most potent cytotoxic and cytodifferentiating agent
